We go through one compound from patent EP0923943A1, “MICELLAR AQUEOUS COMPOSITION AND METHOD FOR SOLUBILIZING HYDROPHOBIC DRUG” (TAISHO PHARMACEUTICAL CO. LTD, priority 1996, dated 1997).

This data set is described as follows: Saturation solubility of taxol. The data set is classed as physicochemical. The conditions noted are these: pH 7.4, aqueous buffer.

The structures appear in SMILES notation. Values after ≈ are worked out from the molar mass of the structure shown.

Usually solubility stands for the dissolved amount per volume that the medium holds. Low readings indicate a poorly soluble substance, high ones a readily soluble substance. Regarding `CC(=O)O[C@H]1C(=O)[C@@]2(C)[C@H]([C@H](OC(=O)c3ccccc3)[C@]3(O)C[C@H](OC(=O)[C@H](O)[C@@H](NC(=O)c4ccccc4)c4ccccc4)C(C)=C1C3(C)C)[C@]1(OC(C)=O)CO[C@@H]1C[C@@H]2O` [taxol], the solubility was 0.32 µg/mL (≈ 0.375 µM).
